Results as given in the NIST ThermoML archive (doi:10.1016/j.tca.2013.06.032).
± gives the expanded uncertainty stated by the source.

Columns and labels:
[1] = Molar enthalpy of transition or fusion; details: Crystal; DSC
[2] = Crystal; DTA

Cc1nc2n(c(=O)c1CCN1CCC(c3noc4cc(F)ccc34)CC1)CCCC2 [risperidone]
Molar enthalpy of transition or fusion [1]: 10 ± 0.263 kcal/mol
Normal melting temperature [2]: 170.52 ± 1.1 °C
